Reference: PubChem BioAssay (NCI)
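How tested: cells in 96-well plates exposed to compound for 48 hours at five concentrations. At the TGI there is no net growth.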

Assays:
Experiment in all cases: NCI tumour cell line growth inhibition, 48 h
MCF7 breast = system: MCF7 breast
LOX IMVI melanoma = system: LOX IMVI melanoma
HCT-116 colon = system: HCT-116 colon
A498 renal = system: A498 renal
PC-3 prostate = system: PC-3 prostate
SK-MEL-28 melanoma = system: SK-MEL-28 melanoma
MOLT-4 leukemia = system: MOLT-4 leukemia
TK-10 renal = system: TK-10 renal
NCI-H522 lung = system: NCI-H522 lung
HS 578T breast = system: HS 578T breast
EKVX NSCLC = system: EKVX NSCLC
OVCAR-3 ovarian = system: OVCAR-3 ovarian
OVCAR-8 ovarian = system: OVCAR-8 ovarian
SK-MEL-2 melanoma = system: SK-MEL-2 melanoma
T-47D breast = system: T-47D breast
COLO 205 colon = system: COLO 205 colon
K-562 leukemia = system: K-562 leukemia
SNB-19 CNS = system: SNB-19 CNS
MALME-3M melanoma = system: MALME-3M melanoma
SW-620 colon = system: SW-620 colon
HOP-92 NSCLC = system: HOP-92 NSCLC
BT-549 breast = system: BT-549 breast
A549 NSCLC = system: A549 NSCLC
SR leukemia = system: SR leukemia
SF-295 CNS = system: SF-295 CNS
OVCAR-5 ovarian = system: OVCAR-5 ovarian
MDA-N = system: MDA-N
NCI/ADR-RES ovarian = system: NCI/ADR-RES ovarian
SNB-75 CNS = system: SNB-75 CNS
SF-539 CNS = system: SF-539 CNS
SK-MEL-5 melanoma = system: SK-MEL-5 melanoma
UACC-257 melanoma = system: UACC-257 melanoma
RPMI-8226 leukemia = system: RPMI-8226 leukemia
SF-268 CNS = system: SF-268 CNS
M14 melanoma = system: M14 melanoma
IGROV1 ovarian = system: IGROV1 ovarian
KM12 colon = system: KM12 colon
NCI-H226 lung = system: NCI-H226 lung
UO-31 renal = system: UO-31 renal
CCRF-CEM leukemia = system: CCRF-CEM leukemia
MDA-MB-435 = system: MDA-MB-435
CAKI-1 renal = system: CAKI-1 renal
U251 CNS = system: U251 CNS
HT29 colon = system: HT29 colon
UACC-62 melanoma = system: UACC-62 melanoma
ACHN renal = system: ACHN renal
786-0 renal = system: 786-0 renal
SK-OV-3 ovarian = system: SK-OV-3 ovarian
NCI-H23 lung = system: NCI-H23 lung
MDA-MB-231 breast = system: MDA-MB-231 breast
RXF 393 renal = system: RXF 393 renal

O=C(O)c1nc2cc(C(F)(F)F)ccc2nc1Nc1ccc(F)cc1
TGI (MCF7 breast): 72.9 µM
TGI (LOX IMVI melanoma): 48.5 µM
TGI (HCT-116 colon): 48.4 µM
TGI (A498 renal): 47.7 µM
TGI (PC-3 prostate): 31.6 µM
TGI (SK-MEL-28 melanoma): > 100 µM
TGI (MOLT-4 leukemia): 59.8 µM
TGI (TK-10 renal): > 100 µM
TGI (NCI-H522 lung): 75.4 µM
TGI (HS 578T breast): 74.3 µM
TGI (EKVX NSCLC): 89.6 µM
TGI (OVCAR-3 ovarian): 49.8 µM
TGI (OVCAR-8 ovarian): 81.7 µM
TGI (SK-MEL-2 melanoma): 26.5 µM
TGI (T-47D breast): > 100 µM
TGI (COLO 205 colon): 37.1 µM
TGI (K-562 leukemia): > 100 µM
TGI (SNB-19 CNS): > 100 µM
TGI (MALME-3M melanoma): 50.9 µM
TGI (SW-620 colon): 68.8 µM
TGI (HOP-92 NSCLC): 39.3 µM
TGI (BT-549 breast): 46.9 µM
TGI (A549 NSCLC): > 100 µM
TGI (SR leukemia): 55 µM
TGI (SF-295 CNS): 58.4 µM
TGI (OVCAR-5 ovarian): 93.5 µM
TGI (MDA-N): 91 µM
TGI (NCI/ADR-RES ovarian): > 100 µM
TGI (SNB-75 CNS): 49.5 µM
TGI (SF-539 CNS): 32.4 µM
TGI (SK-MEL-5 melanoma): 48.1 µM
TGI (UACC-257 melanoma): 60.2 µM
TGI (RPMI-8226 leukemia): > 100 µM
TGI (SF-268 CNS): > 100 µM
TGI (M14 melanoma): 82.4 µM
TGI (IGROV1 ovarian): 55.9 µM
TGI (KM12 colon): 30.3 µM
TGI (NCI-H226 lung): > 100 µM
TGI (UO-31 renal): 35.8 µM
TGI (CCRF-CEM leukemia): > 100 µM
TGI (MDA-MB-435): > 100 µM
TGI (CAKI-1 renal): 74.7 µM
TGI (U251 CNS): 59.5 µM
TGI (HT29 colon): > 100 µM
TGI (UACC-62 melanoma): 31.1 µM
TGI (ACHN renal): 35.2 µM
TGI (786-0 renal): 66 µM
TGI (SK-OV-3 ovarian): > 100 µM
TGI (NCI-H23 lung): 38.2 µM
TGI (MDA-MB-231 breast): 70.8 µM
TGI (RXF 393 renal): 36 µM
